Values of other authors, collected in patent publication US8350059B2, “Intermediates and methods for making zearalenone macrolide analogs” (Eisai R&D Management Co., Ltd., priority 2007, dated 2013).

Test system: Map/Erk kinase (MEK)
Conditions: background statement

## COc1cc(O)c2c(c1)/C=C/C[C@H](O)[C@H](O)C(=O)/C=C\C[C@H](C)OC2=O [F152]
  inhibition of the phosphorylating enzyme Map/Erk kinase (MEK): inhibit the phosphorylating enzyme Map/Erk kinase (MEK)
